Test results: patent publication US20150031890A1, “PHARMACEUTICAL COMPOSITION COMPRISING BICYCLIC PYRIDINOL DERIVATIVES FOR PREVENTING OR TREATING DISEASES CAUSED BY ANGIOGENESIS” (Research Cooperation Foundation of Yeungnam University, priority 2011, published 2015)

What was measured:
[1] = test system: neovascularization induced by VEGF in chicken chorioallantoic membrane (CAM); assay: chorioallantoic membrane (CAM) assay, VEGF-induced angiogenesis; assay type: in vivo
Experimental: To examine angiogenesis inhibitory effects in vivo, a chorioallantoic membrane (CAM) assay was carried out (Nguyen M et al., Microvascular Res., 47, pp 31-40, 1994).
Fertilized chicken eggs were cultured keeping the temperature at 37° C. and the relative humidity at 55%. On the tenth day, the first small hole was made in the region of air sac and the second hole was dug in the flat region of egg, where a window was to be made, using a hypodermic needle (Greencross Medical Science, Korea).
Each egg was deflated through the first hole in the region of the air sac so that the chorioallantoic membrane (CAM) was split from the egg shell. Subsequently, a window was made by cutting this region using a grinding wheel (Multipro 395JA, Dremel, Mexico).
Then, a whatman filter disc #1 (Whatman Inc. USA) was treated with 3 mg/ml of cortisone acetate and dried. The filter disc was drenched with a vascular endothelial growth factor (VEGF) in a concentration of 20 ng/CAM.
The filter disc was put on the vessels through the previously made window, and a compound 12 of Example was dissolved in dimethylsulfoxide (DMSO) and diluted with phosphate buffered saline (PBS) to treat by concentrations.
After 3 days from the drug treatment, the CAMs, on which the filter disc was placed, were separated and washed with PBS to take images using a stereomicroscope (Stemi SV6 stereomicroscope, Carl Zeiss, Germany) and Image-Pro Plus software (Media Cybernetics; Silver Spring, Md., USA). Then, the number of branches was counted and the result data were analyzed.

HUVEC cells [2] = assay: ROS scavenging effect in VEGF-induced HUVEC cells (DCF-DA); assay type: cell-based, human; conditions: 3 hours pre-treatment, VEGF 15 minutes, compared with the VEGF (FIG. 5)
Experimental: (§1) In order to measure an ROS scavenging effect in HUVEC cells induced by a VEGF, 2′,7′-dichlorofluorescein diacetate (DCF-DA) was used. […] The HUVEC cells were injected into 8-well plates coated with 0.2% gelatin in a density of 1×10^5 cells/well and then cultured for 24 hours. A pre-treatment was carried out to the compound 12 for 3 hours and induced by the VEGF for 15 minutes and washed with PBS (pH 7.4) three times. Then, 10 μM DCF-DA was put into an EBM-2 and used to treat in darkroom for 30 minutes, and then washed again with the PBS three times. A fluorescence degree of the cells was measured using a fluorescence microscope. FIG. 5 provides photomicrographs taken at a magnification of 400 times of cells in order to check an ROS scavenging effect of the compound 12 of the present invention. […] FIG. 6 and FIG. 7 illustrate an observation result of the ROS scavenging effect of the compound 12 by treating the adult retinal pigment epithelium (ARPE)-19 cell line with 4-hydroxynonenal (4-HNE) or angiotensin II, which is a risk factor of macular degeneration. […] The 4-hydroxynonenal (4-HNE) or angiotensin II, which is a risk factor of macular degeneration caused cell damage by generation of ROS in ARPE cell and caused damage of a Bruch's membrane and angiogenesis, resulting in macular degeneration and loss of eyesight.

HUVEC cells [3] = assay: chemostatic migration / infiltration inhibitory effect in HUVEC cells; assay type: cell-based, human; conditions: 1, 3, 10 μM, 24 hours, matrigel/collagen coated filter (FIG. 4)
Experimental: In order to examine a chemostatic migration inhibitory effect of the compound of the present invention, the following in vitro experiment was carried out using HUVEC cells (Mi-Sung Kim et al., Cancer Research, 63, 5454-5461, 2003; Sang-Oh Yoon et al., The Journal of Biological Chemistry, 276, 20085-20092, 2001; Sonia Zorzet et al., The Journal of Pharmacology and Experimental Therapeutics, 295, 927-933, 2000). A culture plate applied hereto was a 24-well plate (Corning Costar, Cambridge, Mass.) including a polycarbonate filter having a plurality of pores of […] in size. The bottom side of the polycarbonate filter was coated with 20 l of type I collagen in a concentration of 0.5 mg/ml, and the top side thereof was coated with 20 l of matrigel (BD Bioscience, Bedford, Mass.) in a concentration of 1.5 mg/ml. Here, the lower region of the polycarbonate filter was filled with a medium including 2% FBS, and the HUVEC cells were inoculated into the upper region of the polycarbonate filter. In this case, the compound 12 was dissolved in dimethyl sulfoxide (DMSO) and diluted with phosphate buffered saline (PBS) by concentrations (1, 3, 10 μM). The HUVEC cells inoculated as such were cultured at 37° C. for 24 hours. Subsequently, the cells infiltrating the bottom side of the polycarbonate filter were fixed with methanol and stained with hematoxylin and eosin. […]

A549 lung cancer cells = assay: angiogenesis caused by tumorigenesis and tumor growth, A549 cells inoculated to CAM; assay type: in vivo, chicken; conditions: A549 cells 1.5×10^6 cells/CAM, 5 days after inoculation (FIG. 8)
Experimental: FIG. 8 illustrates an observation result of angiogenesis caused by tumorigenesis by inoculating A549 lung cancer cells to a CAM and a tumor growth inhibitory effect. Fertilized chicken eggs were cultured, and on the ninth day, a window was made in the same manner, and instead of a disc, cancer cells were mixed with matrigel at a ratio of 1:1 and treated with the compound 12 and inoculated in a density of 1.5×10^6 cells/CAM. After 5 days from the inoculation, a CAM portion, in which tumor was formed, was separated and washed with PBS to take images using a stereomicroscope (Stemi SV6 stereomicroscope, Carl Zeiss, Germany) and Image-Pro Plus software (Media Cybernetics; Silver Spring, Md., USA). Then, the number of branches was counted and the result data were analyzed.

[4] = test system: adult retinal pigment epithelium (ARPE)-19 cell line; assay: ROS scavenging effect in ARPE-19 cell line (4-HNE or angiotensin II); assay type: cell-based, human
Experimental: as §1

HUVEC cells [5] = assay: VEGF-induced growth inhibitory effect in HUVEC cells (MTT); assay type: cell-based, human; conditions: 24 hours, MTT (FIG. 3)
Experimental: HUVEC cells were cultured in a flask coated with 0.2% gelatin. Then, the HUVEC cells were cultured in an endothelial cell basal medium-2 (EBM-2, Clonetics, San Diego, Calif.). This EBM-2 contained fetal bovine serum (FBS), hydrocortisone, a human basic fibroblast growth factor (hFGF-B), a vascular endothelial growth factor (VEGF), a human recombinant insulin-like growth factor (R3-IGF-1), ascorbic acid, a human epidermal growth factor (hEGF), GA-1000, and heparin. The HUVEC cells were cultured for 4 to 5 days and injected into a 24-well plate in a density of 5×10^4 cells/well, and the media of the respective wells were set at 1 ml. In order to test the effect of the compound 12 in endothelial cells induced by the VEGF, the HUVEC cells were treated with a mixture of the VEGF and the compound 12 and cultured for 24 hours, and, then, 100 μl of MTT 3-(4,5-dimethylthiazol-2-yl)-2,5-diphenyl tetrazolium bromide; 5 g MTT/l in H2O) was added thereto and further cultured for 4 hours. Then, 200 μl of dimethylsulfoxide (DMSO) was added to the respective wells containing the corresponding cells and mixed with a pipette to dissolve the reduced MTT crystals. Relative cell survival rates were measured by scanning with a microplate reader (Molecular Devices, Menlo Park, Calif.) having 540 nm filter.

[6] = single oral dose toxicity experiment in mice; assay type: in vivo; conditions: single oral dose 0.5, 1 and 2 g/kg, 7 days
Experimental: The compound 12 was suspended in a 0.5% methyl cellulose solution and orally administered to male Balb/c mice with a single dose of 0.5 g/kg, 1 g/kg, and 2 g/kg. Then, the survival rate and weights of the mice were checked for 7 days.
After the administration, whether the animal was dead or not, clinical symptoms, changes in weight were observed, and a hematological test and a blood chemical test were carried out.

[7] = VEGF 20 ng/CAM + 1 μg/CAM, 3 days after treatment
[8] = VEGF 20 ng/CAM + 3 ng/CAM, 0.7 μM
[9] = VEGF 20 ng/CAM + 100 ng/CAM, 23 μM

Question: With `CN(C)c1ccc(/C=C2\C(=O)Nc3ccccc32)cc1` [SU4312] as the molecule, how does the “Inhibition rate (%)” value [1, 7] read?
Answer: 74.6 ± 12.1%

Question: What about the “Number of branches/Main vessel” value [1, 7] of the same molecule?
Answer: 24 ± 4.6

Question: For `Cc1c(C)c2c(c(C)c1O)CC[C@@](C)(CCC[C@H](C)CCC[C@H](C)CCCC(C)C)O2` [α-tocopherol], which “Inhibition rate (%)” value [1, 8] is on record?
Answer: 45.1 ± 9.3%

Question: What about the “Number of branches/Main vessel” value [1, 8] of the same molecule?
Answer: 32.3 ± 3.5

Question: And the “Inhibition rate (%)” value [1, 9]?
Answer: 64.4 ± 14.2%

Question: And the “Number of branches/Main vessel” value [1, 9]?
Answer: 24.3 ± 2.7

Question: Which results are given for `CNC(=O)[C@H](Cc1ccccc1)NC(=O)[C@H](CC(C)C)[C@H](CSc1cccs1)C(=O)NO` [Batimastat]?
Answer: Inhibition rate (%) [1, 7]: 78.4 ± 7.4%; Number of branches/Main vessel [1, 7]: 19.9 ± 2.87

Question: With `Cc1nc2c(c(C)c1O)CC(C)(CCC[C@H](C)CCC[C@H](C)CCCC(C)C)N2C` (stereo partly shown) [Compound 12] as the molecule, how does the “fluorescence degree of the cells (ROS, DCF-DA)” value (HUVEC cells [2]) read?
Answer: remarkably decreased as compared with the VEGF

Question: What about the “infiltration of the HUVEC cells” value (HUVEC cells [3]) of the same molecule?
Answer: reduced infiltration of the HUVEC cells in a concentration-dependent manner

Question: What about the “angiogenesis caused by tumorigenesis” value (A549 lung cancer cells) of the same molecule?
Answer: inhibited angiogenesis caused by tumorigenesis

Question: What about the tumor growth (A549 lung cancer cells) of the same molecule?
Answer: inhibited tumor growth in a significantly low concentration as compared with α-tocopherol

Question: And the “fluorescence degree of the cells (ROS)” value ([4]; ARPE-19 treated with 4-hydroxynonenal (4-HNE), compared with control group (FIG. 7))?
Answer: remarkably decreased as compared with the control group

Question: What about the “fluorescence degree of the cells (ROS)” value ([4]; ARPE-19 treated with angiotensin II, compared with control group (FIG. 6)) of the same molecule?
Answer: remarkably decreased as compared with the control group

Question: And the VEGF-induced cell growth (HUVEC cells [5])?
Answer: reduced VEGF-induced cell growth in a concentration-dependent manner

Question: And the “increase in neovascularization induced by the VEGF” value ([1]; CAM, VEGF 20 ng/CAM)?
Answer: decreased in a concentration-dependent manner

Question: What about the inhibition at 0.001 µM ([1]; Gallus gallus, VEGF 20 ng/CAM + 0.004 ng/CAM, 1 nM, read-out: Inhibition rate (%)) of the same molecule?
Answer: 64 ± 12.5%

Question: And the inhibition at 0.01 µM ([1]; Gallus gallus, VEGF 20 ng/CAM + 0.04 ng/CAM, 10 nM, read-out: Inhibition rate (%))?
Answer: 71.4 ± 6.4%

Question: And the IC50 ([1]; Gallus gallus, VEGF-induced angiogenesis, treated by concentrations (FIG. 2))?
Answer: 0.7 nM

Question: And the “Number of branches/Main vessel” value ([1]; VEGF 20 ng/CAM + 0.004 ng/CAM, 1 nM)?
Answer: 28 ± 4.7

Question: What about the “Number of branches/Main vessel” value ([1]; VEGF 20 ng/CAM + 0.04 ng/CAM, 10 nM) of the same molecule?
Answer: 25.2 ± 2.4

Question: What about the clinical symptoms [6] of the same molecule?
Answer: any especially remarkable clinical symptoms were not observed
